Test results published in ChEMBL document CHEMBL5154810, “Development of Potent Immune Modulators Targeting Stimulator of Interferon Genes Receptor” (J Med Chem, 2022).
Blank lines part the entries; values can stand above or below the compound they belong to. Active and inactive are the calls of the source. The calls are words filed in the database; no cut-off is given here.

Assays:
[1] = Induction of IP-10 secretion in human THP-1 cells assessed as maximal efficacy by ELISA relative to control; assay type: functional
[2] = Activation of IRF-mediated immune response in human THP1-Dual KO-STING cells co-expressing ISRE reporter assessed as normalized luciferase gene expression by measuring relative luciferase units at 50 uM incubated for 24 hrs by QUANTI Luc based microplate reader method; assay type: functional
RAW264.7 [3] = test: Induction of IL-6 secretion in mouse RAW264.7 cells at 2 uM incubated for 24 hrs by ELISA; assay type: functional, cell-based
RAW264.7 [4] = test: Induction of IP-10 secretion in mouse RAW264.7 cells at 0.64 to 10000 nM by ELISA; assay type: functional, cell-based; settings: dose 0.64-10000 nM
PBMC = test: Induction of IFN-beta secretion in human PBMC cells at 1.6 to 1000 nM by ELISA; assay type: functional, cell-based; settings: dose 1.6-1000 nM
RAW264.7 [5] = test: Induction of TNF-alpha secretion in mouse RAW264.7 cells at 0.625 uM incubated for 24 hrs by ELISA; assay type: functional, cell-based
[6] = biological target: Nuclear factor NF-kappa-B complex (Homo sapiens) (UniProt Q00653+P19838+Q04206); test: Activation of NF-kappaB mediated pro-inflammatory effector proteins in human THP-1 cells at 2 to 10 nM incubated for 4 hrs by western blot analysis; assay type: cell-based; settings: filed as activator, dose 2-10 nM
Nuclear factor NF-kappa-B complex (Homo sapiens), sequence (P19838 whole entry, looked up): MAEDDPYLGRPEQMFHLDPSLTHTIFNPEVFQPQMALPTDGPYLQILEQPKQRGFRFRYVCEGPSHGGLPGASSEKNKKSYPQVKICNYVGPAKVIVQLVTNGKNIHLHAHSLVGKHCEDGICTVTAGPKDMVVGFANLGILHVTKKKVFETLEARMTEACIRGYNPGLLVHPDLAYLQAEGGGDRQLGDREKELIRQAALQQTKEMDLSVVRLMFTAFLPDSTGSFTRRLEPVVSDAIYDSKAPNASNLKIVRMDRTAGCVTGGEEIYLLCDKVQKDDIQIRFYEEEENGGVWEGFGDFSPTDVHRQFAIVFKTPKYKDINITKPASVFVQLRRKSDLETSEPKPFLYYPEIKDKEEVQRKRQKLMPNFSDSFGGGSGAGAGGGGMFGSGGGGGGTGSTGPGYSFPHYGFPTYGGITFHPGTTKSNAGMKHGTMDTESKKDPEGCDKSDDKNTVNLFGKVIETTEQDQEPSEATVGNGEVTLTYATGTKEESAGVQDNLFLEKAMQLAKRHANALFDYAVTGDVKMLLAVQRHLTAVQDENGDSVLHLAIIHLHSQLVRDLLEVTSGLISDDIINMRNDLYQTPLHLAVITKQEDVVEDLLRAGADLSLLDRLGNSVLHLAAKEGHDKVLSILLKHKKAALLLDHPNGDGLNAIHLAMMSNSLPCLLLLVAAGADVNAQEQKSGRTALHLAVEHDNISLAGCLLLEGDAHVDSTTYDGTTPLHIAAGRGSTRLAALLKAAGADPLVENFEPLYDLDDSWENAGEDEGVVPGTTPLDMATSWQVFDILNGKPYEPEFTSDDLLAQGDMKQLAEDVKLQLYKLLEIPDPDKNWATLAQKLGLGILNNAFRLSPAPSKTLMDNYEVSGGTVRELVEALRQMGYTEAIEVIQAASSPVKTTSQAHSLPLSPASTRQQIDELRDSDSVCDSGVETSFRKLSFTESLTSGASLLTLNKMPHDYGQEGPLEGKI
Nuclear factor NF-kappa-B complex (Homo sapiens), sequence (Q00653 whole entry, looked up): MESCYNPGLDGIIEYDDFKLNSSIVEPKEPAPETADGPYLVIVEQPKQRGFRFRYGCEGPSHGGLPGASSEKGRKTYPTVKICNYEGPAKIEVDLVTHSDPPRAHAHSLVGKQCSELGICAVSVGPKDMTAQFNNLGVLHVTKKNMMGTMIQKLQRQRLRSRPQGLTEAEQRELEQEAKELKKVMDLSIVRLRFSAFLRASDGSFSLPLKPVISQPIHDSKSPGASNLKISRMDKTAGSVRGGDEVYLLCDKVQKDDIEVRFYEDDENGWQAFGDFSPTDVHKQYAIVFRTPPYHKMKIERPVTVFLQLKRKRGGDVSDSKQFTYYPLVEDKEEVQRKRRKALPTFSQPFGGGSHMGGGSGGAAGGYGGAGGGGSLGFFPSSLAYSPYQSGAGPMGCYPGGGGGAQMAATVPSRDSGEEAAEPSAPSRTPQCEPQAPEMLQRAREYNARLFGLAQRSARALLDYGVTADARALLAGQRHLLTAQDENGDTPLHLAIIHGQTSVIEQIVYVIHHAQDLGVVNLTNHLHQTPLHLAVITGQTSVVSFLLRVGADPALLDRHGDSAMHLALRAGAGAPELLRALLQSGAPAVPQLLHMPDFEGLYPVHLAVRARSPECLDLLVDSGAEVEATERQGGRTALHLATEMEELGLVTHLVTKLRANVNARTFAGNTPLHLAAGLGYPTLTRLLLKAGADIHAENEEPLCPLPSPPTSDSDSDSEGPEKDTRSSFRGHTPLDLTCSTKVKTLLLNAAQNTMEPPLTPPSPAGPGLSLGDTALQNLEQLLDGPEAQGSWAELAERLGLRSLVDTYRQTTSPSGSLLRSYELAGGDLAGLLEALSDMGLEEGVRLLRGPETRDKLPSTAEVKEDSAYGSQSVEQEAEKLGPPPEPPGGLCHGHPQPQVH
Nuclear factor NF-kappa-B complex (Homo sapiens), sequence (Q04206 whole entry, looked up): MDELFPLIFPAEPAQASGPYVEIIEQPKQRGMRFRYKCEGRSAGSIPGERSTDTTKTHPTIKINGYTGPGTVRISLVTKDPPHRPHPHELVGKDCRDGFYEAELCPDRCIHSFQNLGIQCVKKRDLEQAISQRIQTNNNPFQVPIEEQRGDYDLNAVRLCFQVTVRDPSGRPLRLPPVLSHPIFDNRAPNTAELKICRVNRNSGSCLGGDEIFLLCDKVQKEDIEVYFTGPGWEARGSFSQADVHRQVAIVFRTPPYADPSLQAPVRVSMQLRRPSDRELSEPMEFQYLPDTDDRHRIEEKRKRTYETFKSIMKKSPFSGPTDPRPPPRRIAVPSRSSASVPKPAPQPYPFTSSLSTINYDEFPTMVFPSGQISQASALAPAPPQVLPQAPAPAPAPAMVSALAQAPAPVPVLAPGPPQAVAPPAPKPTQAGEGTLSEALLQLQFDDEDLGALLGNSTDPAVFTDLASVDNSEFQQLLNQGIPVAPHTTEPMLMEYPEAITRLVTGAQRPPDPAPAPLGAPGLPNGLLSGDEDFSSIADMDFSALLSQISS

RAW264.7 [7] = test: Activation of NF-kappaB mediated pro-inflammatory effector proteins in mouse RAW264.7 cells at 100 to 500 nM for incubated for 3 hrs by western blot analysis; assay type: cell-based; settings: filed as activator, dose 100-500 nM
[8] = Terminal half life in BALB/c mouse at 3 mg/kg, iv by LC-MS/MS analysis; assay type: ADME, organism-based; settings: in vivo, read-out: beta t1/2 (converted)
[9] = Volume of distribution at steady state in BALB/c mouse at 3 mg/kg, iv by LC-MS/MS analysis; assay type: ADME, organism-based; settings: in vivo, read-out: Vdss
[10] = Clearance in BALB/c mouse at 3 mg/kg, iv by LC-MS/MS analysis; assay type: ADME, organism-based; settings: BALB/c, in vivo
[11] = AUClast in BALB/c mouse at 3 mg/kg, iv by LC-MS/MS analysis; assay type: ADME, organism-based; design: time 0 - last, dose 3 mg/kg, route iv; settings: in vivo
[12] = AUCinfinity in BALB/c mouse at 3 mg/kg, iv by LC-MS/MS analysis; assay type: ADME, organism-based; design: time infinity, dose 3 mg/kg, route iv; settings: BALB/c, in vivo
CT26 [13] = test: Antitumor immunity activity against mouse CT26 cells xenografted in BALB/c mouse model assessed as tumor growth inhibition at 1.5 mg/kg, iv measured after 8 days; assay type: functional, organism-based; settings: time 8.0 day
[14] = Toxicity in BALB/c mouse xenografted with mouse CT26 cells assessed as effect on body weight at 1.5 mg/kg, iv measured after 8 days; assay type: organism-based; settings: in vivo, 192 h, time 8 day
CT26 [15] = test: Immunological memory derived cancer inhibition in mouse CT26 cells inoculated in 1.5 mg/kg, iv for 8 days treated/cured BALB/c mouse model assessed as tumor recurrence followed by re-inoculation of cells; assay type: functional, organism-based; settings: time 8.0 day
CT26 [16] = test: Antitumor immunity activity against mouse CT26 cells xenografted in BALB/c mouse model assessed as tumor growth inhibition at 0.015 mg/kg, iv measured after 8 days; assay type: functional, organism-based; settings: time 8.0 day
[17] = Toxicity in BALB/c mouse xenografted with mouse CT26 cells assessed as body weight loss at 0.015 mg/kg, iv measured after 8 days; assay type: organism-based; settings: in vivo, 192 h, time 8 day
[18] = biological target: T1, Stimulator of interferon genes protein (Homo sapiens, UniProt Q86WV6); settings: THP1-Dual, filed as activator, dose 50.0 µM, time 24.0 hrs
T1 sequence (Q86WV6 whole entry): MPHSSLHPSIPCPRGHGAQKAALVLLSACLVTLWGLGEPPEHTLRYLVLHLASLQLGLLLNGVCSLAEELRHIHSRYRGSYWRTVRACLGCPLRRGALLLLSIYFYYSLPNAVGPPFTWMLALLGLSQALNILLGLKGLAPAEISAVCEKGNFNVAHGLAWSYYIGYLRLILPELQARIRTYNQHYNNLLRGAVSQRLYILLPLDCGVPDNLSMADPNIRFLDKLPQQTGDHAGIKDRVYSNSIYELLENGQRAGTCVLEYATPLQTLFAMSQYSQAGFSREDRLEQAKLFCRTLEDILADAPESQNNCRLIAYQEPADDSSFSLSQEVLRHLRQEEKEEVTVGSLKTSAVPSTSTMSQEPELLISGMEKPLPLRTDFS

[19] = biological target: T1, Stimulator of interferon genes protein; test: Binding affinity to recombinant human His-tagged STING by measuring fluorescent signals in the presence of d2 labelled STING wild type ligand by HTRF based microplate reader analysis
[20] = Solubility of the compound in DMSO at 50 to 100 uM incubated for 72 hrs; assay type: physicochemical; settings: dose 50-100 µM
THP1-Dual = test: Cytotoxicity against human wild type THP1-Dual cells assessed as residual cell viability by CellTiter96 Aqueous One Solution Cell Proliferation Assay; assay type: functional; design: concentration or dose not given beside the values
[21] = Cytotoxicity against human THP1-Dual KO-STING cells assessed as residual cell viability by CellTiter96 Aqueous One Solution Cell Proliferation Assay; assay type: functional; design: concentration or dose not given beside the values
[22] = biological target: T2, Stimulator of interferon genes protein (Mus musculus) (UniProt Q3TBT3); test: Activation of STING mediated immune response in mouse RAW264.7 cells assessed as induction of IFNbeta secretion at 5000 to 20000 nM measured after 24 hrs by ELISA; assay type: cell-based; settings: filed as activator, dose 5000-20000 nM
T2 sequence (whole entry): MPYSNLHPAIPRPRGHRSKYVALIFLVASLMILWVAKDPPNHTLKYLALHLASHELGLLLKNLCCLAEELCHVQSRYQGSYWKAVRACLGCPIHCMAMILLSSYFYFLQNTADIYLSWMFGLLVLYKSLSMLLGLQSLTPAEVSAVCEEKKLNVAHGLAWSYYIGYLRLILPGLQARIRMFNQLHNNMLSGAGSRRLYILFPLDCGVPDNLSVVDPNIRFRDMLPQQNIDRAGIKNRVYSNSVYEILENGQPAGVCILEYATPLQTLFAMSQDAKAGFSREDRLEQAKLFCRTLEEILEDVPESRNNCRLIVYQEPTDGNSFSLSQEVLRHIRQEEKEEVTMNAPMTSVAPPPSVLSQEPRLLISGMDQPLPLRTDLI

[23] = biological target: T1, Stimulator of interferon genes protein; test: Activation of STING mediated immune response in human THP-1 cells assessed as induction of IP-10 secretion at 500 to 5000 nM measured after 24 hrs by ELISA; assay type: cell-based; settings: filed as activator, dose 500-5000 nM
[24] = biological target: T1, Stimulator of interferon genes protein; test: Activation of STING mediated immune response in human THP-1 cells assessed as induction of IFNbeta secretion at 500 to 5000 nM measured after 24 hrs by ELISA; assay type: cell-based; settings: filed as activator, dose 500-5000 nM
[25] = biological target: T2, Stimulator of interferon genes protein (Mus musculus); test: Activation of STING mediated immune response in mouse RAW264.7 cells assessed as induction of IP-10 secretion at 5000 to 20000 nM measured after 24 hrs by ELISA; assay type: cell-based; settings: filed as activator, dose 5000-20000 nM

Activity [6]: Active | half-life [8]: 1.75 h | Vd [9]: 1.81 L/kg | clearance [10]: 12 mL/min/kg | AUC(0-t) [11]: 4240 ng·h/mL | AUC(0-inf) [12]: 4300 ng·h/mL | RLU [18]: 100
SMILES: CCn1nc(C)cc1C(=O)NCCCOc1cc(C(N)=O)cc2nc(NC(=O)c3cc(C)nn3CC)n(C/C=C/Cn3c(NC(=O)c4cc(C)nn4CC)nc4cc(C(N)=O)cc(OC)c43)c12
Emax [1]: 325% | RLU [2]: 0.8 | Activity (RAW264.7 [3]): Active | Activity (RAW264.7 [4]): Active | Activity (PBMC): Active | Activity (RAW264.7 [5]): Active | Activity (RAW264.7 [7]): Active | Activity (CT26 [13]): Active | Activity [14]: Non-Toxic | Activity (CT26 [15]): Active | Activity (CT26 [16]): Active | Activity [17]: Non-Toxic

IC50 [19]: 6.16 nM | solubility [20]: Insoluble
SMILES: CCn1nc(C)cc1C(=O)Nc1nc2cc(C(N)=O)ccc2n1CCCCn1c(NC(=O)c2cc(C)nn2CC)nc2cc(C(N)=O)ccc21

Activity [22]: Active | Activity [23]: Active | Activity [24]: Active | Activity [25]: Active | RLU [18]: 97.8
SMILES: CCn1nc(C)cc1C(=O)/N=c1\[nH]c2cc(C(N)=O)ccc2n1CCCCn1/c(=N/C(=O)c2cc(C)nn2CC)[nH]c2cc(C(N)=O)ccc21
RLU [2]: 0.8 | Activity (THP1-Dual): 97.4% | Activity [21]: 93.8%
